We go through two molecules from patent US20120328588A1, “COMPOUND PREPARATION AND ITS USES FOR PREVENTION AND TREATMENT OF HEARING IMPAIRMENT” (The Second Military Medical University of Chinese PLA, priority 2010, published 2012).

The subject of assay [1] is guinea pigs exposed to noise. As to the kind of experiment: Therapeutic effect on noise-induced hearing impairment: hearing threshold shift of guinea pigs, drug given intravenously within 7 days after noise exposure. In kind it is in vivo. Here is the method:
(§1) Eighty guinea pigs with normal weight and pure white hair were randomly divided into control group, alpha-lipoic acid group, nimodipine group, and compound preparation group. The animals were exposed to an octave band of noise (OBN) centered at 4 kHz, 115 dB SPL, 4 h per day. Animals in the study groups were administered intravenously with the corresponding drug dose as designed, and those in the control group were administered with NS within 7 days after noise exposure. Hearing threshold shift of the animals was determined at different intervals of noise exposure in different groups. The synergistic effect of alpha-lipoic acid and nimodipine on regulating hearing threshold shift was observed and analyzed using q test.
Being less than 20 dB was considered as an effective value. The synergistic effect of alpha-lipoic acid and nimodipine was analyzed using q test. Pla=4/10 means that there were 10 guinea pigs in the alpha-lipoic acid group, within which 4 were effective, and the remaining 6 were invalid. The mean of the rest was analogous to Pla=4/10.

Assay [2] relates to guinea pigs exposed to noise. Kind of assay: Preventive effect on noise-induced hearing impairment: hearing threshold shift of guinea pigs, drug given two days before noise exposure. In kind it is in vivo. Here is the method:
as §1, with “Experiments with Hearing Threshold Shift Sixty-four guinea” for “Eighty guinea”, “The guinea pigs” for “The animals”, “day. Two days before noise exposure, animals” for “day. Animals”, “administered” for “administered intravenously”, “with normal saline (NS).” for “with NS within 7 days after noise exposure.”
Being less than 20 dB was considered as an effective value. The synergistic effect of alpha-lipoic acid and nimodipine was analyzed using q test. Pla=2/8 means that there were 8 guinea pigs in the alpha-lipoic acid group, within which 2 were effective, and the remaining 6 were invalid. The mean of the rest was analogous to Pla=2/8.

As to `O=C(O)CCCCC1CCSS1` (stereo not shown) [LA, 1-2 dithiolane-3-pentanoic acid], the “Mean change in hearing threshold shift” value in assay [1] (LA 80 mg/kg intravenously, 2 weeks after exposure) was 20.5 dB; in assay [1] (LA 80 mg/kg intravenously, at 1st day after exposure), 32.5 dB; in assay [2] (LA 80 mg/kg, at 1st after exposure) it was 32.5 dB; in assay [2] (LA 80 mg/kg, at 7th day after exposure), 20.5 dB. In addition, the “P (effective guinea pigs / guinea pigs in group)” value in assay [1] (LA 80 mg/kg intravenously, effective = mean hearing threshold shift less than 20 dB within 7 days after noise exposure) was “Pla = 4/10”; in assay [2] (LA 80 mg/kg, effective = mean hearing threshold shift less than 20 dB within 7 days of exposure to noise), “Pla = 2/8”.
For the molecule `COCCOC(=O)C1=C(C)NC(C)=C(C(=O)OC(C)C)C1c1cccc([N+](=O)[O-])c1` (stereo not shown) [NIM, Nimodipine], the “Mean change in hearing threshold shift” value in assay [1] (NIM 2 mg/kg intravenously, 2 weeks after exposure) was 23.5 dB; in assay [1] (NIM 2 mg/kg intravenously, at 1st day after exposure), 41.0 dB; in assay [1] (NIM 4 mg/kg intravenously, 2 weeks after exposure) it was 24 dB; in assay [1] (NIM 4 mg/kg intravenously, at 1st day after exposure), 38.5 dB; in assay [1] (NIM 8 mg/kg intravenously, 2 weeks after exposure) it was 22.0 dB; in assay [1] (NIM 8 mg/kg intravenously, at 1st day after exposure), 38 dB. For the same molecule, the “Mean change in hearing threshold shift” value was found to be 22.0 dB in assay [1] (NIM 16 mg/kg intravenously, 2 weeks after exposure); 36 dB in assay [1] (NIM 16 mg/kg intravenously, at 1st day after exposure); 41.0 dB in assay [2] (NIM 2 mg/kg, at 1st after exposure); 23.5 dB in assay [2] (NIM 2 mg/kg, at 7th day after exposure); 38.5 dB in assay [2] (NIM 4 mg/kg, at 1st after exposure); 24 dB in assay [2] (NIM 4 mg/kg, at 7th day after exposure). The “Mean change in hearing threshold shift” value in assay [2] (NIM 8 mg/kg, at 1st after exposure) was determined as 38 dB; in assay [2] (NIM 8 mg/kg, at 7th day after exposure), 22.0 dB; in assay [2] (NIM 16 mg/kg, at 1st after exposure) it was 36 dB; in assay [2] (NIM 16 mg/kg, at 7th day after exposure), 22.0 dB.
